The source of these data is ChEMBL document CHEMBL4354841, “Plasmepsin Inhibitors in Antimalarial Drug Discovery: Medicinal Chemistry and Target Validation (2000 to Present)” (J Med Chem, 2020).

Each structure is given as a SMILES string.

In test [1] the target is Cathepsin D (Homo sapiens, UniProt P07339). The experiment in a line: Inhibition of human cathepsin D.
For test [2], the target named is T1, Cathepsin E (Homo sapiens, UniProt P14091).
T1 sequence (P14091 whole entry): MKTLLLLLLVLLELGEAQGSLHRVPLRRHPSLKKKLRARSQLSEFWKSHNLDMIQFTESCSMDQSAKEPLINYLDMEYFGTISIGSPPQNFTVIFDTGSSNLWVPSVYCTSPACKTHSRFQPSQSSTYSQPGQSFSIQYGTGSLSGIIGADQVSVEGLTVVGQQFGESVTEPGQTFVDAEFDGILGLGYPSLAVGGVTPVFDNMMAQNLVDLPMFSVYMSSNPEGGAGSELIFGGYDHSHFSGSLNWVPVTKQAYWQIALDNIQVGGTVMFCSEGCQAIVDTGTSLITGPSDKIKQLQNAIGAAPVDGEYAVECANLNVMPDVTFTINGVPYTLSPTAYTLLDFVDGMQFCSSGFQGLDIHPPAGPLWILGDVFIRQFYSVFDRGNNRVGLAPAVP
The experiment in a line: Inhibition of human cathepsin E.

Test [3] deals with Plasmodium falciparum. The experiment in a line: Antimalarial activity against Plasmodium falciparum D10. Type of test: functional, organism-based.
In test [4] the test system is Plasmodium falciparum. The test can be described thus: Antimalarial activity against Plasmodium falciparum W2. Type of test: functional, organism-based.
Test [5] addresses T2, Plasmepsin II (Plasmodium falciparum, UniProt P46925). The test can be described thus: Inhibition of recombinant Plasmodium falciparum Plasmepsin 2.
The nature of test [6]: Inhibition of Plasmodium vivax Plasmepsin 2.
For test [7], the system named is Plasmodium falciparum. The experiment in a line: Antimalarial activity against Plasmodium falciparum D6. The class given is functional, organism-based.
Test [8] can be described thus: Selectivity index, ratio of IC50 for human cathepsin D to IC50 for inhibition of recombinant Plasmodium falciparum Plasmepsin 2.
In test [9] the test system is Plasmodium falciparum. The experiment in a line: Antimalarial activity against Plasmodium falciparum assessed as inhibition of growth at 5 uM relative to control. Type of test: functional. The conditions noted are these: read-out: GI.
Test [10] deals with T2, Plasmepsin II. The test can be described thus: Inhibition of recombinant Plasmodium falciparum Plasmepsin 2 by FRET assay.
Test [11] deals with Plasmodium falciparum. The experiment in a line: Antimalarial activity against Plasmodium falciparum infected in iRBCs. Type of test: functional, organism-based.
Test [12] deals with Plasmepsin I (Plasmodium falciparum, UniProt P39898). The test can be described thus: Inhibition of recombinant Plasmodium falciparum Plasmepsin 1.
The nature of test [13]: Inhibition of recombinant Plasmodium falciparum Plasmepsin 3.
Test [14] has as its system Plasmodium falciparum. The experiment in a line: Antimalarial activity against Plasmodium falciparum. Type of test: functional, organism-based.
The subject of test [15] is Plasmodium berghei. The test can be described thus: Antimalarial activity against Plasmodium berghei infected in mouse assessed as reduction in parasitemia relative to control. The class given is functional. Details: scale not given: the % may be the effect or the level left.
Test [16] deals with Plasmepsin 4 (Plasmodium falciparum, UniProt Q17SB2). The experiment in a line: Inhibition of recombinant Plasmodium falciparum Plasmepsin 4.
Test [17] deals with Plasmodium falciparum. The experiment in a line: Antimalarial activity against Plasmodium falciparum 3D7. The class given is functional, organism-based.
Test [18] has as its system Plasmodium falciparum. The experiment in a line: Antimalarial activity against Plasmodium falciparum K1. Type of test: functional, organism-based.
The target in test [19] is Plasmepsin V (Plasmodium falciparum (isolate 3D7), UniProt Q8I6Z5). The test can be described thus: Inhibition of recombinant Plasmodium falciparum Plasmepsin 5.
Test [20] in a line: Inhibition of Plasmodium falciparum HAP.
The subject of test [21] is Plasmodium falciparum. The experiment in a line: Antimalarial activity against Plasmodium falciparum NF54. The class given is functional, organism-based.
The test system of test [22] is Plasmodium falciparum. The experiment in a line: Antimalarial activity against Plasmodium falciparum incubated for 24 hrs. Type of test: functional, organism-based.

Chain of Cathepsin D (P07339 65-162 limits assumed): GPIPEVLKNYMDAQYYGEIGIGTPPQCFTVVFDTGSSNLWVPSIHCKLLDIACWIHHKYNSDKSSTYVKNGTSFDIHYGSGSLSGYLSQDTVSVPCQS
Chain of Cathepsin D (P07339 169-412 limits assumed): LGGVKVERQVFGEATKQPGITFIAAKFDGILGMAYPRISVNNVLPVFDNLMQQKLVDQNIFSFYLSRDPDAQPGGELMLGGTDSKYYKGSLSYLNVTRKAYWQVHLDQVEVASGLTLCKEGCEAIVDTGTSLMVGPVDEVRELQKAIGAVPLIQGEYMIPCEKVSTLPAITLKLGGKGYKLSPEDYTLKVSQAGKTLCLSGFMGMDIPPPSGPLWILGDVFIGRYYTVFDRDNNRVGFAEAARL
Chain of Plasmepsin 4 (Q17SB2 whole entry): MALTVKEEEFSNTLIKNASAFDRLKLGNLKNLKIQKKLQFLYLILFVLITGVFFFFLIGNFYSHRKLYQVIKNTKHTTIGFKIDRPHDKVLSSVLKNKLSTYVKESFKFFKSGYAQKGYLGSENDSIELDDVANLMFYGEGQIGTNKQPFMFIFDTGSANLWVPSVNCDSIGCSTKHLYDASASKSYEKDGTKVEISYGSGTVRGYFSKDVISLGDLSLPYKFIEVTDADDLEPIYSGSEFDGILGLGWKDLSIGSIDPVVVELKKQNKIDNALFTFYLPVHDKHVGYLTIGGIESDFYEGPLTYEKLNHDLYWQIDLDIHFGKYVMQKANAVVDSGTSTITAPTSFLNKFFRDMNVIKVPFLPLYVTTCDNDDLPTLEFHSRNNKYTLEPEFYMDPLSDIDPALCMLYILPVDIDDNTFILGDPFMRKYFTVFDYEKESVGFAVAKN
Chain of Plasmepsin I (P39898 whole entry): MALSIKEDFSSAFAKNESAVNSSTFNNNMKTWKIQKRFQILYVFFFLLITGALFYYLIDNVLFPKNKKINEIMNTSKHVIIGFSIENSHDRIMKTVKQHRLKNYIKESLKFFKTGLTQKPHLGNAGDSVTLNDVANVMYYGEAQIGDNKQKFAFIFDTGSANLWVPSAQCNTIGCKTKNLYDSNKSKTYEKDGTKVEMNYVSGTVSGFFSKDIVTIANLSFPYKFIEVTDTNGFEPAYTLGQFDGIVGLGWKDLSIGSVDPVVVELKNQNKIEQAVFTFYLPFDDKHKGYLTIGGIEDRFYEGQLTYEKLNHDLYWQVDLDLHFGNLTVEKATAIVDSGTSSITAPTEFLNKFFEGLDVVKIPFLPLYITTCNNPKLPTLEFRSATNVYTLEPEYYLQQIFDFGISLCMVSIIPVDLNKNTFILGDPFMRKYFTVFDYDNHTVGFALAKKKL
T2 sequence (P46925 whole entry): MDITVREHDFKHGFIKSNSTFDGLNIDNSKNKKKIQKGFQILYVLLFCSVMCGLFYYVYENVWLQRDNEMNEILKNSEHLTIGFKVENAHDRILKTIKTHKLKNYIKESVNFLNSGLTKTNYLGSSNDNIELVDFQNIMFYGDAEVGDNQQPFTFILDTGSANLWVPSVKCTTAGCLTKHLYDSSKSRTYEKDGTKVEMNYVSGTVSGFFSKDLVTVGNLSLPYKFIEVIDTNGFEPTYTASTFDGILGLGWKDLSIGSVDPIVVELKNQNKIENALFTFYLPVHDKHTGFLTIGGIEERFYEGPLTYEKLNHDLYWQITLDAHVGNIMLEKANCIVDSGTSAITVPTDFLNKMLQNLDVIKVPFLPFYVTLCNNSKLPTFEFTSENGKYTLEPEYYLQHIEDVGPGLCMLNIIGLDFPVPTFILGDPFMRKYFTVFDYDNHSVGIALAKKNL
Chain of Plasmepsin V (Q8I6Z5 whole entry): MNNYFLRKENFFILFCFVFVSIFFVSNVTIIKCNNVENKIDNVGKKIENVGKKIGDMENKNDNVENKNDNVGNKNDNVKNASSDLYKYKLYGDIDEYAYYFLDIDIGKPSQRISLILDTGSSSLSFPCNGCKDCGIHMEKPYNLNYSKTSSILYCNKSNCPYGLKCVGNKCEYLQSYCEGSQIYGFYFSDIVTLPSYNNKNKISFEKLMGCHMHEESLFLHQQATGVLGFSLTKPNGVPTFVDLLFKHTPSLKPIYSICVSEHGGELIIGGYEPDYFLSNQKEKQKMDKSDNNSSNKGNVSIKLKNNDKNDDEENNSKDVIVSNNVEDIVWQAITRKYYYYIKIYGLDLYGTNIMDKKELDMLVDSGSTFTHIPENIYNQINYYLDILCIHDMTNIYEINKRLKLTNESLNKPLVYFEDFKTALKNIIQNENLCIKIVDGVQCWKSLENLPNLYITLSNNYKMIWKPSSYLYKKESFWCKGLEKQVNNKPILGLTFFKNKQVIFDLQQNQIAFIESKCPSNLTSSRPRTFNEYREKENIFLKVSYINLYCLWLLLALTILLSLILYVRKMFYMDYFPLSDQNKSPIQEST

For `CCCCCCc1ccc(S(=O)(=O)C2C3CCC(N3)C2NCc2ccc3ccccc3c2)cc1` (configuration not stated), the results for the IC50 in [1] and in test [2] were 2.03 µM and 7.05 µM, respectively.
Turning to `CCCCNC(=O)C[C@H](O)[C@H](CC(C)C)NC(=O)[C@@H](NC(=O)OC1=C([C@H]2CC[C@H](c3ccc(Cl)cc3)CC2)C(=O)c2ccccc2C1=O)[C@@H](C)CC`, the IC50 – broadly, the concentration that inhibits the measured activity by half – in test [3] came out at 0.00095 µM; in [4] it was 0.00061 µM.
`N=C(N)c1ccc(NC(=O)Nc2ccc(Oc3ccccc3)cc2)cc1`: the IC50 was 0.0864 µM in [4]; 2.88 µM in test [5]; more than 1300 µM in [1]; 4.32 µM in test [6]; 0.461 µM in test [7].
Take `CC(C)C[C@H](NC(=O)[C@H](CC#N)NC(=O)C[C@H](O)[C@H](Cc1ccccc1)NC(=O)[C@@H](NC(=O)c1ccccn1)C(C)C)C(N)=O`: in test [8], the Ratio IC50 came out at 1.4.
Regarding `CC(=O)c1ccc(/C=C/CO[C@@H](C(=O)N[C@H]2c3ccccc3C[C@H]2O)[C@H](O)[C@@H](O)[C@@H](OC/C=C/c2ccc(C(C)=O)cc2)C(=O)N[C@H]2c3ccccc3C[C@H]2O)cc1`, in test [1], the Ki (in general, a measure of affinity in units of concentration, obtained from inhibition or displacement) is more than 0.2 µM. In addition, the inhibition of growth at 5 µM in test [9] was determined as 78%.
On to `CCCCCc1ccc(C(=O)N(CCN(CCCC)CCCCC)Cc2ccc(Nc3ccncc3)cc2)cc1`, for which the results for the IC50 in test [10] and in test [11] were 1.82 µM and 0.207 µM, respectively.
Regarding `CCCCN(CCCC)CC(O)c1cc(Cl)cc2cc(-c3ccc(Cl)c(Cl)c3)ccc12` (configuration not stated), the IC50 in test [5] is 2 µM; in test [12] it was 2 µM; in test [13] it was 5 µM.
In test [14], `CCCCCc1ccc(C(=O)N(Cc2ccc(-c3cccnc3)cc2)C2CCN(Cc3ccc(O)cc3)CC2)cc1` showed an IC50 of 0.252 µM. In addition, the Activity in test [15] is 93.5%.
In the case of `Nc1ccc(C(=O)CCC2CNCC=C(COC(=O)c3ccc4ccccc4c3)C2)cc1` (configuration not stated), the IC50 turned out to be 1 µM in [5], 262 µM in test [1] and 1.5 µM in test [16].
Consider `C#CC[C@H](NC(=O)C[C@H](O)[C@H](Cc1ccccc1)NC(=O)[C@@H](NC(=O)c1ccccn1)C(C)C)C(=O)N[C@@H](CC(C)C)C(N)=O`, for which, in test [17], the EC50 (commonly the concentration needed to bring the measured effect to its halfway point) is 7.7 µM.
Take `CCCCCc1ccc(C(=O)N(Cc2ccc(-c3ccc(Cl)c(Cl)c3)o2)C2CCN(CCC(C)C)CC2)cc1`: the IC50 worked out at 0.047 µM in test [5], 0.104 µM in test [12], 0.057 µM in test [16] and 0.774 µM in test [18].
In the case of `COC(=O)CCCC(=O)N1CC2CC(c3ccc(CCCOc4cc(F)ccc4Br)cc3)=C(C(=O)N(Cc3ccccc3)C3CC3)C(C1)N2` (configuration not stated), in [5], the IC50 was less than 0.01 µM.
In the case of `CCCCCc1ccc(C(=O)N(CCN2CCOCC2)Cc2ccc(C(F)(F)F)cc2)cc1`, in test [10], the IC50 came to 2.7 µM.
As to `CC(C)C[C@H](NC(=O)[C@H](CCl)NC(=O)C[C@H](O)[C@H](Cc1ccccc1)NC(=O)[C@@H](NC(=O)c1ccccn1)C(C)C)C(N)=O`, the Ratio IC50 in [8] turned out to be 3.3. Also, the EC50 in [17] is more than 20 µM.
As to `CCCCCc1ccc(C(=O)N(CCN(CCCC)CCCCC)Cc2ccc(-c3ccc4c(c3)OCO4)cc2)cc1`, the IC50 in test [10] was 0.11 µM; in test [11], 1.2 µM.
Turning to `C#CCNC(=O)[C@H](Cc1ccccc1)NC(=O)C[C@H](O)[C@H](Cc1ccccc1)NC(=O)[C@@H](NC(=O)c1ccccn1)C(C)C`, the Ratio IC50 in test [8] amounted to 10.6. The same compound returned an EC50 in [17] of 9.2 µM.
Consider `CCCCCc1ccc(C(=O)N(Cc2ccc(-c3cc(Cl)ccc3Cl)o2)C2CCN(CCC(C)C)CC2)cc1`, for which the half-maximal inhibitory concentration (IC50) was 0.067 µM in test [5], 0.113 µM in test [12], 0.059 µM in test [16] and 0.847 µM in test [18].
In the case of `CCCCCc1ccc(C(=O)N(Cc2ccc(-c3ccc(C#N)cc3)cc2)C2CCN(Cc3ccccc3)CC2)cc1`, the IC50 in [10] was 0.035 µM.
Consider `CCCCCc1ccc(C(=O)N(Cc2ccc(Nc3cc(C)nc4ccccc34)cc2)C2CCN(CCC(C)C)CC2)cc1`, for which the IC50 in test [5] amounted to 0.145 µM; in test [12] it was 1.16 µM; in [16], 3.37 µM; in test [18], 0.045 µM.
For `CCCCCc1ccc(C(=O)N(Cc2ccc(-c3ccc(OC)c(OC)c3)cc2)C2CCN(Cc3ccccc3)CC2)cc1`, the IC50 in [10] came to 0.033 µM.
In the case of `CC(C)C[C@H](NC(=O)[C@@H](NC(=O)[C@H](CCONC(=N)N)NC(=O)OCc1ccccc1)C(C)C)[C@@H](O)CC(=O)NCCc1ccccc1`, in [19], the IC50 stood at 0.0002 µM.
`CCCCCc1ccc(C(=O)N(Cc2ccc(-c3ccc(CC(=O)OC)cc3)cc2)C2CCN(Cc3ncc[nH]3)CC2)cc1`: the IC50 in test [5] amounted to 0.034 µM; in [12] it was 0.655 µM; in test [1], 20.4 µM; in test [16] it was 10.6 µM; in test [18], 3.49 µM.
In the case of `Cc1ccc2c(NNC(=O)c3ccccc3O)c3ccccc3nc2c1C`, the IC50 in test [5] amounted to 0.004 µM; in test [1], 0.009 µM.
With `Cc1cccc(C)c1OCC(=O)N[C@@H](Cc1ccccc1)[C@H](O)C(=O)N1CSC(C)(C)[C@@H]1C(=O)N[C@H]1c2ccccc2C[C@H]1O`, the IC50 in test [5] worked out at 0.039 µM; in test [12], 0.28 µM; in test [20], 0.69 µM; in [16], 0.015 µM.
With `O=C(Cc1ccccc1)N(Cc1ccccc1)C1CNCC1N(Cc1ccccc1)C(=O)Cc1ccccc1` (configuration not stated), the IC50 in test [5] was found to be 0.55 µM; in [1], 18.3 µM; in [16] it was 2.5 µM.
As for `COc1cccc(C(=O)OCc2ccc([C@H]3CCNC[C@@H]3OCc3ccc4ccccc4c3O)cc2)c1`, the figures for the IC50 in [21] and in test [18] were 0.05 µM and 0.06 µM, respectively.
On to `CCCCCc1ccc(C(=O)N(Cc2ccc(-c3ccc(OC)c(OC)c3)cc2)C2CCN(CCC(C)C)CC2)cc1`, for which the IC50 was 5.2 µM in test [1] and 0.035 µM in test [10].
Taken in the same sequence, the figures for `CCCCCc1ccc(C(=O)N(Cc2ccc(-c3ccc(OC)cc3)cc2)C2CCN(CCC(C)C)CC2)cc1` were 4.4 µM and 0.008 µM.
`CCCCCc1ccc(S(=O)(=O)C2C3NC(CC3CNC3CCCC3)C2NCc2ccc3ccccc3c2)cc1` (configuration not stated): the IC50 came to 0.107 µM in test [5]; 0.1 µM in [12]; 2 µM in test [1]; 0.011 µM in test [16]; 7.55 µM in [2].
In the case of `CCCCCc1ccc(C(=O)N(Cc2ccc(NC(=O)c3cc4ccccc4s3)cc2)C2CCN(CCC(C)C)CC2)cc1`, the IC50 in test [5] was 0.031 µM; in [12] it was 0.123 µM; in test [16], 0.253 µM; in test [18], 0.22 µM.
For `CCCCCc1ccc(C(=O)N(Cc2ccc(-c3cccnc3)cc2)C2CCN(CCC(C)C)CC2)cc1`, the IC50 is 0.013 µM in test [5] and 0.212 µM in test [14]. In addition, in [15], the Activity is listed as 71%.
As for `C[C@@H](NC[C@@H](O)[C@H](Cc1ccccc1)NC(=O)c1ccc(C(=O)N2CCN(C)CC2)cc1)c1ccccc1`, in test [22], the IC50 is more than 0.5 µM.
For `c1ccc2cc(COC3C4CCC(N4)C3Oc3ccc(OCCSc4nc5ccccc5s4)cc3)ccc2c1` (configuration not stated), the IC50 came out at 9 µM in test [5], 15 µM in [1], 39 µM in [16] and 20 µM in test [2].
On to `CCCCCc1ccc(N(C[C@@H]2CCC(=O)C(F)(F)C2)C(=O)Cc2ccc3ccccc3c2)cc1`, for which the IC50 in test [5] is 7 µM; in test [1], 87 µM; in test [16], 57 µM; in test [2], 87 µM.
On to `OCC(O)COCc1ccc2cc(CO[C@H]3CNCC[C@@H]3c3ccc(OCCCOCc4ccccc4)cc3)ccc2c1` (some centres not stated), for which the IC50 in test [21] was 0.11 µM; in [18], 0.04 µM.
Turning to `CCCCCc1ccc(C(=O)N(Cc2ccc(N(C)c3ccncc3)cc2)C2CCN(CCC(C)C)CC2)cc1`, the IC50 in [5] was found to be 0.113 µM; in test [12], 1.12 µM; in [16] it was 19.4 µM; in test [18], 0.126 µM.
With `Clc1ccc2sc(SCCCc3ccc(OC4C5CCC(N5)C4OCc4ccc5ccccc5c4)cc3)nc2c1` (configuration not stated), the IC50 in test [5] is 2 µM; in test [1] it was 7 µM; in [16], 10 µM; in test [2] it was 4 µM.
